We go through 9 compounds from patent US20240415819A1, “MACROCYCLIC COMPOUNDS AS PROTEASOME SUBUNIT BETA TYPE-5 INHIBITORS” (Lead Discovery Center GmbH, priority 2021, published 2024).

The subject of test [1] is RPMI 8226 (B lymphocyte cell line, multiple myeloma). Nature of the test: 48 hr CTG viability assay, RPMI 8226. The format is cell-based. The settings on record: Homo sapiens, RPMI-8226; 48 hr CTG; read-out: RPMI-8226 IC50. The essentials:
(§1)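 Growth inhibition by compound over 48 h; IC50 (nM) derived from duplicate CellTiter-Glo luminescence readings across 0.0015–10 uM.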

The subject of test [2] is A549 (human lung carcinoma cell line). Nature of the test: Glo assay of A549 cells (Table 3; ProteasomeGlo plating scheme). Format: cell-based. To be noted: Homo sapiens; A549 cells; read-out: PGLo A549. A digest of the protocol:
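Cells plated in 384 wells; compound, DMSO, staurosporine transferred by ECHO; 105 min, 37° C., 5% CO2; Proteasome-Glo (Suc-LLVY-Glo) reagent added; dark 10-15 min; luminescence; IC50 nM.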

Test [3] concerns MM1 S (B lymphoblast cell line). Description: 48 hr CTG viability assay, MM1S. The format is cell-based. To be noted: Homo sapiens, 48 hr CTG, read-out: MM1S IC50. A digest of the protocol:
as §1

Test [4] concerns Hs 746T (human gastric carcinoma cell line). Nature of the test: 48 hr CTG viability assay, Hs 746T. The format is cell-based. The settings on record: Hs746T, 48 hr CTG, read-out: Hs 746T IC50. A digest of the protocol: as §1
For test [5], the target named is T1, β5 subunit of the human constitutive proteasome (CPS) (Homo sapiens, UniProt P28074).
T1 construct: purchased Boston Biochem E-360
Nature of the test: β5 inhibition assay, human constitutive proteasome (Suc-LLVY-AMC). Format: biochemical. To be noted: IC50 class, Suc-LLVY-AMC substrate. The protocol:
The enzymatic activity of the β5 subunit of the human constitutive proteasome (CPS) is analyzed. In another assay, which differs from the assay of the human constitutive proteasome only in using the human immunoproteasome (IPS) the enzymatic activity of the β5 subunit of the human immunoproteasome (IPS) is analyzed. […] Inhibition is indicated as IC50 [nM] (“-”=not measured).

In test [6] the target is T2, β5 subunit of the human immunoproteasome (IPS) (Homo sapiens, UniProt P28062).
T2 construct: purchased Boston Biochem E-370
Description: β5 inhibition assay, human immunoproteasome (Suc-LLVY-AMC). Format: biochemical. To be noted: IC50 class, Suc-LLVY-AMC substrate. A digest of the protocol: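 β5 activity is read as liberated AMC fluorescence (355/460 nm) after 4 h dark reaction at RT with 22.6 μM Suc-LLVY-AMC, stopped by 1 μM bortezomib. Beforehand, 1 nM human IPS and compound sat 10 min at RT in HEPES pH 7.5 buffer containing NaCl, 0.02% SDS and DTT.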

Structures are written as SMILES.

Take `Cc1ccc2cc1CNC(=O)[C@H](CCc1ccccc1)NC(=O)[C@@H](NC(=O)CCNCC1CC1)CC(=O)N1CCCC(CCO2)C1` (stereo partly drawn) [Compound 694, 3-((cyclopropylmethyl)amino)-N-((9S,12S)-5^4-methyl-8,11,14-trioxo-9-phenethyl-4-oxa-7,10-diaza-1(3,1)-piperidina-5(1,3)-benzenacyclotetradecaphane-12-yl)propanamide]: the IC50 in test [1], in test [2], in test [3], in test [4], in test [5] and in test [6] was less than 100 nM each time.
`Cc1ccc2cc1CNC(=O)[C@H](CCc1ccccc1)NC(=O)[C@@H](NC(=O)CCOCCC1CCC1)CC(=O)N1CCCC(CCO2)C1` (stereo partly drawn) [Compound 627, 3-(2-cyclobutylethoxy)-N-((9S,12S)-5^4-methyl-8,11,14-trioxo-9-phenethyl-4-oxa-7,10-diaza-1(3,1)-piperidina-5(1,3)-benzenacyclotetradecaphane-12-yl)propanamide]: the IC50 in test [1], in test [2], in test [3], in test [4], in test [5] and in test [6] was less than 100 nM each time.
`Cc1ccc2cc1CNC(=O)[C@H](CCc1ccccc1)NC(=O)[C@@H](NC(=O)C1CCCCC1)CC(=O)N1CCCC(CCO2)C1` (stereo partly drawn) [Compound 643, N-((9S,12S)-5^4-methyl-8,11,14-trioxo-9-phenethyl-4-oxa-7,10-diaza-1(3,1)-piperidina-5(1,3)-benzenacyclotetradecaphane-12-yl)cyclohexanecarboxamide]: the IC50 in test [1], in test [2], in test [3], in test [4], in test [5] and in test [6] was less than 100 nM throughout.
Consider `Cc1ccc2cc1CNC(=O)[C@H](CCc1ccccc1)NC(=O)[C@@H](NC(=O)CCOCC1CC1)CC(=O)N1CCCC(CCO2)C1` (stereo partly drawn) [Compound 594, 3-(cyclopropylmethoxy)-N-((9S,12S)-5^4-methyl-8,11,14-trioxo-9-phenethyl-4-oxa-7,10-diaza-1(3,1)-piperidina-5(1,3)-benzenacyclotetradecaphane-12-yl)propanamide], for which the IC50 in test [1], in test [2], in test [3], in test [4], in test [5] and in test [6] was less than 100 nM each time.
Turning to `Cc1ccc2cc1CNC(=O)[C@H](CCc1ccccc1)NC(=O)[C@@H](NC(=O)C(C)(C)CO)CC(=O)NCCCO2` [Compound 736, 3-hydroxy-2,2-dimethyl-N-((9S,12S)-1^4_ methyl-7,10,13-trioxo-12-phenethyl-2-oxa-6,11,14-triaza-1(1,3)-benzenacyclopentadecaphane-9-yl)propanamide], the IC50 is 1000 to 5000 nM in test [1]; greater than 5000 nM in test [2]; 1000 to 5000 nM in test [3]; greater than 5000 nM in test [4]; 1000 to 5000 nM in test [5]; 1000 to 5000 nM in test [6].
`Cc1ccc2cc1CNC(=O)[C@H](CCc1ccccc1)NC(=O)[C@@H](NC(=O)CCOC1CC3(CNC3)C1)CC(=O)N1CCCC(CCO2)C1` (stereo partly drawn) [Compound 725, 3-((2-azaspiro[3.3]heptan-6-yl)oxy)-N-((9S,12S)-5^4-methyl-8,11,14-trioxo-9-phenethyl-4-oxa-7,10-diaza-1(3,1)-piperidina-5(1,3)-benzenacyclotetradecaphane-12-yl)propanamide]: the IC50 in test [1] was 100 to 500 nM; in test [2], less than 100 nM; in test [3], 100 to 500 nM; in test [4] it was 100 to 500 nM; in test [5], less than 100 nM; in test [6] it was less than 100 nM.
Turning to `Cc1ccc2cc1CNC(=O)[C@H](CCc1ccccc1)NC(=O)[C@@H](N1CCCCC1=O)CC(=O)N1CCCC(CCO2)C1` (stereo partly drawn) [Compound 734, (9S,12S)-5^4-methyl-12-(2-oxopiperidin-1-yl)-9-phenethyl-4-oxa-7,10-diaza-1(3,1)-piperidina-5(1,3)-benzenacyclotetradecaphane-8,11,14-trione], the IC50 in test [1] was 1000 to 5000 nM; in test [2] it was 1000 to 5000 nM; in test [3], 1000 to 5000 nM; in test [4], greater than 5000 nM; in test [5], 1000 to 5000 nM; in test [6], 100 to 500 nM.
In the case of `Cc1ccc2cc1CNC(=O)[C@H](CCc1ccccc1)NC(=O)[C@@H](NC(=O)CCNS(=O)(=O)c1ccc(OCC3CCCCC3)cc1)CC(=O)N1CCCC(CCO2)C1` (stereo partly drawn) [Compound 672, 3-((4-(cyclohexylmethoxy)phenyl)sulfonamido)-N-((9S,12S)-5^4-methyl-8,11,14-trioxo-9-phenethyl-4-oxa-7,10-diaza-1(3,1)-piperidina-5(1,3)-benzenacyclotetradecaphane-12-yl)propanamide], the IC50 in test [1], in test [2], in test [3], in test [4], in test [5] and in test [6] was less than 100 nM each time.
`Cc1ccc2cc1CNC(=O)[C@H](CCc1ccccc1)NC(=O)[C@@H](NC(=O)CCNC1CC3(CCC3)C1)CC(=O)N1CCCC(CCO2)C1` (stereo partly drawn) [Compound 657, N-((9S,12S)-5^4-methyl-8,11,14-trioxo-9-phenethyl-4-oxa-7,10-diaza-1(3,1)-piperidina-5(1,3)-benzenacyclotetradecaphane-12-yl)-3-(spiro[3.3]heptan-2-ylamino)propanamide]: the IC50 in test [1], in test [2], in test [3], in test [4], in test [5] and in test [6] was less than 100 nM each time.
